From ChEMBL document CHEMBL1201862, “PubChem BioAssay data set” (2004)
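Compound exposure: 48 hours, 5 concentrations, 96-well plates. GI50 marks 50% less growth.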 The source made the active and inactive calls. Cut-off read from the data, not from the text of the source: active = GI50 up to about 1.1 µM and inactive = higher.

Key:
Assay in all cases: growth of human tumour cells (NCI), 48 h
A498 = tested on: A498
COLO 205 = tested on: COLO 205
EKVX = tested on: EKVX
HCC 2998 = tested on: HCC 2998
Hs-578T = tested on: Hs-578T
KM12 = tested on: KM12
M14 = tested on: M14
MDA-MB-231 = tested on: MDA-MB-231
NCI-H23 = tested on: NCI-H23
NCI-H522 = tested on: NCI-H522
OVCAR-4 = tested on: OVCAR-4
OVCAR-5 = tested on: OVCAR-5
OVCAR-8 = tested on: OVCAR-8
SK-MEL-28 = tested on: SK-MEL-28
SK-OV-3 = tested on: SK-OV-3
SN12C = tested on: SN12C
UACC-62 = tested on: UACC-62
UO-31 = tested on: UO-31
NCI-H226 = tested on: NCI-H226
SR = tested on: SR

SMILES	GI50 (A498)	GI50 (COLO 205)	GI50 (EKVX)	GI50 (HCC 2998)	GI50 (Hs-578T)	GI50 (KM12)	GI50 (M14)	GI50 (MDA-MB-231)	GI50 (NCI-H23)	GI50 (NCI-H522)	GI50 (OVCAR-4)	GI50 (OVCAR-5)	GI50 (OVCAR-8)	GI50 (SK-MEL-28)	GI50 (SK-OV-3)	GI50 (SN12C)	GI50 (UACC-62)	GI50 (UO-31)	GI50 (NCI-H226)	GI50 (SR)
COc1cc(/C=C2\N=C(c3ccccc3)N(c3nc4c(OC)ccc(OC)c4s3)C2=O)cc(OC)c1OC	> 100 µM (inactive)	30.4 µM (inactive)	> 100 µM (inactive)	> 100 µM (inactive)	> 100 µM (inactive)	61.8 µM (inactive)	> 100 µM (inactive)	> 100 µM (inactive)	> 100 µM (inactive)	35.7 µM (inactive)	> 100 µM (inactive)	> 100 µM (inactive)	86.1 µM (inactive)	> 100 µM (inactive)	> 100 µM (inactive)	> 100 µM (inactive)	66.1 µM (inactive)	> 100 µM (inactive)	–	–
c1ccc(C[N+]23CN4CN(CN(C4)C2)C3)cc1	> 100 µM (inactive)	18.5 µM (inactive)	> 100 µM (inactive)	20.4 µM (inactive)	> 100 µM (inactive)	33.2 µM (inactive)	19.7 µM (inactive)	20.1 µM (inactive)	19.1 µM (inactive)	> 100 µM (inactive)	36.5 µM (inactive)	> 100 µM (inactive)	30.1 µM (inactive)	26.7 µM (inactive)	> 100 µM (inactive)	53.2 µM (inactive)	17.3 µM (inactive)	20.8 µM (inactive)	> 100 µM (inactive)	–
CN(C)CCNC(=O)C1COc2cc(-c3cc(=O)c4ccccc4o3)ccc2O1 (stereo not given)	19 µM (inactive)	16.6 µM (inactive)	53.5 µM (inactive)	> 100 µM (inactive)	–	–	18.1 µM (inactive)	–	41.1 µM (inactive)	16.6 µM (inactive)	17.8 µM (inactive)	29.6 µM (inactive)	23.6 µM (inactive)	19.5 µM (inactive)	23.1 µM (inactive)	22.4 µM (inactive)	18.8 µM (inactive)	74.3 µM (inactive)	28.1 µM (inactive)	15.6 µM (inactive)
NC1=C(Br)C(=O)c2ncccc2C1=O	3.72 µM (inactive)	1.71 µM (inactive)	1.61 µM (inactive)	1.11 µM (active)	–	1.12 µM (active)	0.673 µM (active)	–	0.156 µM (active)	0.321 µM (active)	1.37 µM (inactive)	1.95 µM (inactive)	0.531 µM (active)	0.34 µM (active)	1.81 µM (inactive)	0.815 µM (active)	0.232 µM (active)	0.316 µM (active)	1.69 µM (inactive)	0.173 µM (active)
O=c1c2ccccc2c2c3c1cccc3c1cccc3c(=O)c4ccccc4c2c31	> 100 µM (inactive)	> 100 µM (inactive)	> 100 µM (inactive)	> 100 µM (inactive)	–	> 100 µM (inactive)	> 100 µM (inactive)	–	> 100 µM (inactive)	> 100 µM (inactive)	> 100 µM (inactive)	> 100 µM (inactive)	> 100 µM (inactive)	> 100 µM (inactive)	> 100 µM (inactive)	> 100 µM (inactive)	> 100 µM (inactive)	> 100 µM (inactive)	> 100 µM (inactive)	> 100 µM (inactive)
CC(C)(NC1=NCCO1)c1ccccc1	> 100 µM (inactive)	> 100 µM (inactive)	> 100 µM (inactive)	> 100 µM (inactive)	> 100 µM (inactive)	> 100 µM (inactive)	> 100 µM (inactive)	> 100 µM (inactive)	> 100 µM (inactive)	> 100 µM (inactive)	> 100 µM (inactive)	> 100 µM (inactive)	> 100 µM (inactive)	> 100 µM (inactive)	> 100 µM (inactive)	> 100 µM (inactive)	> 100 µM (inactive)	> 100 µM (inactive)	> 100 µM (inactive)	–
CN(C)/C=N/c1cc(=O)n(C)c(=O)n1C	> 100 µM (inactive)	> 100 µM (inactive)	> 100 µM (inactive)	> 100 µM (inactive)	> 100 µM (inactive)	> 100 µM (inactive)	> 100 µM (inactive)	> 100 µM (inactive)	> 100 µM (inactive)	> 100 µM (inactive)	> 100 µM (inactive)	> 100 µM (inactive)	> 100 µM (inactive)	> 100 µM (inactive)	> 100 µM (inactive)	> 100 µM (inactive)	> 100 µM (inactive)	> 100 µM (inactive)	> 100 µM (inactive)	–
C/C(CC(=O)N(C(C)C)C(C)C)=N\NC(=O)c1ccncc1	> 100 µM (inactive)	> 100 µM (inactive)	> 100 µM (inactive)	> 100 µM (inactive)	–	–	> 100 µM (inactive)	–	> 100 µM (inactive)	> 100 µM (inactive)	> 100 µM (inactive)	–	> 100 µM (inactive)	> 100 µM (inactive)	> 100 µM (inactive)	> 100 µM (inactive)	> 100 µM (inactive)	> 100 µM (inactive)	> 100 µM (inactive)	> 100 µM (inactive)
COc1c(/C=C/C(C)(C)O)cc(C2CC(=O)c3c(O)cc(O)cc3O2)cc1CC=C(C)C (stereo not given)	9.48 µM (inactive)	9.35 µM (inactive)	–	2.36 µM (inactive)	10.7 µM (inactive)	10.4 µM (inactive)	8.45 µM (inactive)	8.22 µM (inactive)	9.02 µM (inactive)	9.27 µM (inactive)	10.4 µM (inactive)	9.14 µM (inactive)	10.8 µM (inactive)	13.2 µM (inactive)	7.83 µM (inactive)	6.27 µM (inactive)	6.79 µM (inactive)	0.762 µM (active)	9.71 µM (inactive)	–
CC1=NNC(=O)C1C1CC(c2c[nH]c3ccccc23)=NN(C(N)=O)C1=O (stereo not given)	> 100 µM (inactive)	53.2 µM (inactive)	> 100 µM (inactive)	–	85.1 µM (inactive)	28.5 µM (inactive)	> 100 µM (inactive)	> 100 µM (inactive)	29.9 µM (inactive)	31.8 µM (inactive)	–	> 100 µM (inactive)	98.6 µM (inactive)	> 100 µM (inactive)	> 100 µM (inactive)	> 100 µM (inactive)	80.7 µM (inactive)	28.7 µM (inactive)	> 100 µM (inactive)	–
O=C(/C=C/c1c(O)ccc2ccccc12)c1ccc([N+](=O)[O-])cc1	> 100 µM (inactive)	33.1 µM (inactive)	41.9 µM (inactive)	97.9 µM (inactive)	–	67.1 µM (inactive)	19.8 µM (inactive)	–	23.1 µM (inactive)	17 µM (inactive)	18.5 µM (inactive)	> 100 µM (inactive)	37.2 µM (inactive)	30.1 µM (inactive)	> 100 µM (inactive)	20 µM (inactive)	17.4 µM (inactive)	> 43 µM (inactive)	> 100 µM (inactive)	32.7 µM (inactive)
N#Cc1ccc(N2CCOCC2)cc1	42.8 µM (inactive)	> 100 µM (inactive)	> 100 µM (inactive)	–	> 100 µM (inactive)	> 100 µM (inactive)	> 100 µM (inactive)	> 100 µM (inactive)	80.5 µM (inactive)	34.2 µM (inactive)	> 100 µM (inactive)	> 100 µM (inactive)	> 100 µM (inactive)	> 100 µM (inactive)	> 100 µM (inactive)	> 100 µM (inactive)	> 100 µM (inactive)	> 100 µM (inactive)	–	–
O=c1cc(CO)n(CCc2c[nH]c3ccccc23)cc1O	–	55 µM (inactive)	> 100 µM (inactive)	–	28.1 µM (inactive)	42.1 µM (inactive)	47.1 µM (inactive)	31.3 µM (inactive)	73.8 µM (inactive)	24.7 µM (inactive)	–	81.5 µM (inactive)	69.7 µM (inactive)	–	48.4 µM (inactive)	36.2 µM (inactive)	23.9 µM (inactive)	49.1 µM (inactive)	–	–
Cn1c(-c2c(C3=CC(=O)N(c4ccccc4)C3=O)c3ccccc3n2C)cc2ccccc21	–	> 100 µM (inactive)	4.51 µM (inactive)	> 100 µM (inactive)	–	21.8 µM (inactive)	> 100 µM (inactive)	> 100 µM (inactive)	> 100 µM (inactive)	50 µM (inactive)	> 100 µM (inactive)	> 100 µM (inactive)	> 100 µM (inactive)	> 100 µM (inactive)	4.38 µM (inactive)	> 100 µM (inactive)	> 100 µM (inactive)	> 100 µM (inactive)	> 100 µM (inactive)	17.7 µM (inactive)
C1=NN2C(c3ccccc3)=NOC2C2C(c3ccccc3)=NOC12 (stereo not given)	–	> 100 µM (inactive)	> 100 µM (inactive)	> 100 µM (inactive)	> 100 µM (inactive)	> 100 µM (inactive)	> 100 µM (inactive)	> 100 µM (inactive)	> 100 µM (inactive)	42.9 µM (inactive)	–	> 100 µM (inactive)	> 100 µM (inactive)	–	> 100 µM (inactive)	–	> 100 µM (inactive)	> 100 µM (inactive)	96.2 µM (inactive)	–
N#Cc1c(N)n(-c2cccc(C(=O)O)c2)c(=O)c2cc([N+](=O)[O-])ccc12	> 100 µM (inactive)	> 100 µM (inactive)	–	> 100 µM (inactive)	> 100 µM (inactive)	> 100 µM (inactive)	–	> 100 µM (inactive)	> 100 µM (inactive)	–	> 100 µM (inactive)	–	> 100 µM (inactive)	> 100 µM (inactive)	–	> 100 µM (inactive)	> 100 µM (inactive)	> 100 µM (inactive)	> 100 µM (inactive)	–
